US11344025B2, “Organ preconditioning formulation with mitochondrial elongating agents” (MUSC FOUNDATION FOR RESEARCH DEVELOPMENT, priority 2017, dated 2022)
“Also recorded” adds a separate entry of the source. Like-named read-outs stand apart in the source and are kept apart here.

Tests used:
[1] = tested on: focal cardiac ischemia; settings: non-transplant setting, previous studies, cited from earlier work
[2] = Systemic administration of Mdivi-1, adverse effects; assay type: in vivo
Source text: The studies proposed will delineate the role of mito morphology alterations in cardiac-Tx. They will also determine how donor BD impacts IM, and identify an optimum drug delivery strategy for reducing acute post-Tx injury through mito shape manipulation. The opposing roles of mito fission and fusion regulate mito morphology and function. A number of key proteins have been identified which control this process (DRP-1, mito fission protein-1 (Fis-1) and mito fission factor (mff), Mfn1/2, and OPA-1). Given the importance of these proteins for the maintenance of cellular respiration, genetic deletion is most often fatal. However, C57Bl/6 homozygous mito fission factor (Mff)-deficient (Mff^gt−/−) mice are available, as are pharmacological promoters of fusion, M1 and Mdivi-1. […] Using these tools, the inventors will dissect the role of fission and fusion in IRI and rejection in the context of organ Tx. The inventors propose three sub Aims. In SA 2.1, the inventors will determine the impact of mito fission inhibition, and thus fusion promotion, through comparing the effects of IRI and AR of recipients receiving hearts from C57Bl/6 wildtype (wt) or C57Bl/6 homozygous mito fission factor (Mff)-deficient (Mff^gt−/−) donors. In SA 2.2 the inventors will explore the therapeutic potential of donor heart pre-treatment with M1, Mdivi-1, and a combination of both. […]

[3] = tested on: sensitized allogeneic CD8+ T-cells cocultured with MCECs; assay: EC/T cell co-culture: cytokine release by alloreactive CD8 T cells; assay type: cell-based, mouse; settings: cold stored (CIT) and treated ECs
Source text: EC/T cell co-culture: Using the genetically modified and pharmacological inhibitors the inventors will dissect the impact of EC mito morphology manipulation on T cell activation/co-stimulation. These studies will focus on MCECs given the availability of reagents and ability to generate alloreactive CD8 T cells as previously published.
Allogenic CD8 T cells will be generated. In brief, C57Bl/6 mice will be inoculated with MCECs i.p. and 3 weeks later spleens will be harvested and CD8 T cells isolated using bead isolation techniques. These MCEC alloreactive CD8 T cells will then be co-cultured with MCECs in the normoxic and CIT models.

[4] = tested on: MCECs; assay: mitoSOX staining of mito ROS after CIT; assay type: cell-based, mouse; settings: CIT-induced ROS
Method: Hypoxic cold storage and reperfusion injury culture model: A modified cell culture model that simulates the IR process of organ Tx will be used. […] Cells will then be sealed in a hypoxic chamber filled with nitrogen at 4° C. After CIT, cells will undergo simulated reperfusion by removing the preservation solution and reintroducing fresh DMEM containing 10% FBS.

COc1cc(-n2c(S)nc3ccccc3c2=O)c(Cl)cc1Cl [Mdivi-1]
cardioprotection from focal IRI [1]: provides protection from IRI; also recorded: promote cardioprotective effects | cardioprotection from focal IRI ([1]; listed as Mdivi1): protect both myocardium and microvasculature | adverse side effects [2]: no detectable adverse side effects

CC(=O)N[C@@H](CS)C(=O)O [NAC, N-Acetyl Cysteine]
Granzyme B (GrB) production by co-cultured alloreactive CD8 T cells [3]: has no impact; also recorded: no significant effect; also recorded: do not decrease Granzyme-B to the extent of DRP-KD | IFN-gamma production by co-cultured alloreactive CD8 T cells [3]: has no impact; also recorded: no significant effect | mito ROS (mitoSox) [4]: completely abrogated ROS
